Blank lines part the entries; values can stand above or below the compound they belong to.
Experiments:
CCR2 = target: T1, CCR2 (Homo sapiens, UniProt P41597); assay: CCR2 receptor membrane binding assay (THP-1 membranes, 125I-MCP-1, SPA beads); conditions: THP-1 cell membranes, 125I-MCP-1, 8 h; read-out: hKi [nM] (CCR2)
T1 construct: Membranes were prepared from THP-1 cells; endogenous in cells; host or cells: THP-1 (human acute monocytic leukaemia cells), membrane preparation
T1 sequence (P41597 1-360 isoform P41597-2): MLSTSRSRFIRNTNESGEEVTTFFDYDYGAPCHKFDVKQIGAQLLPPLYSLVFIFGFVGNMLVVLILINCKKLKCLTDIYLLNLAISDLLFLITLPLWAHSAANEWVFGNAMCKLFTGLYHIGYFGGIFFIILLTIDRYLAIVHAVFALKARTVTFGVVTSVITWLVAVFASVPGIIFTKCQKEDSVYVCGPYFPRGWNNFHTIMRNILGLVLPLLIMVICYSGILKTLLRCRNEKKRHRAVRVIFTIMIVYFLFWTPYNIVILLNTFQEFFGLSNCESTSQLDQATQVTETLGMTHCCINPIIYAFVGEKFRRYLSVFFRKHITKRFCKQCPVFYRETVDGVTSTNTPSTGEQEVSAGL
Description: The above exemplary substances have been tested for binding to CCR2 using a binding assay as outlined herein below:
THP-1 cells (human acute monocytic leukaemia cells) were cultured under standardized conditions at 37° C. and 5% CO2 in a humidified incubator. THP-1 cells were cultivated in RPMI 1640 medium (Gibco 21875) containing 1% MEM-NEAA (Gibso 11140) 2 mM L-glutamine, 1.5 g/L sodium bicarbonate, 4.5 g/L glucose, 10 mM HEPES and 1.0 mM sodium pyruvate, 90%; 10% fetal calf serum (FCS Gibco 10500-064).
Membranes were prepared from THP-1 cells. THP-1 cells were centrifuged at 300×g at 4° C. for 10 min. The cell pellet was resuspendet in Phosphate Buffer Saline (PBS, including 10 μM Pefabloc and a protease inhibitor mix ‘complete’, Boehringer Mannheim (1 tablet/50 ml)), to a concentration of […]. The membrane preparation was performed by disrupting the cells by nitrogen […] (at 50 bar, for 1 h) in a “Nitrogen Bombe” (Parr Instrument). Cell debris was removed by centrifugation (800×g at 4° C., 1 min). The supernatant was centrifuged at 80000×g, 4° C. for 30 min to sediment the cell membranes. Usually 50 mg of protein (Bradford assay) were yielded from 1×10E9 cells. The membranes were resuspendet in 25 mM HEPES, 25 mM MgCl2, 1 mM CaCl2, 10% Glycerine for storage in aliquots at −80° C. in 25 mM HEPES, 25 mM MgCl2, 1 mM CaCl2, 10% Glycerine and stored at −80° C.
Perkin Elmer NEX 332 Jod^125 MCP-1, Stock: 2200 Ci/mmol solved in 2000 μl assay buffer, stored at −20° C. THP-1 membrane were adjusted with 25 mM HEPES, pH 7.2; 5 mM MgCl2; 0.5 mM CaCl2; 0.2% BSA assay buffer to a concentration of 2.5 μg/15 μl. Amersham Biosciences PVT-WGA Beads (RPNQ0001) were adjusted with assay buffer to a concentration of 0.24 mg/30 μl. For preparation of the membrane-bead-suspension membranes and beads were incubated for 30 min at RT under rotation (60 rpm) with a ratio of 1:2. Test compounds dissolved in 100% DMSO to a concentration of 10 mM and are further diluted with 100% DMSO to 1 mM. All additional compound dilutions were obtained with assay buffer, final 1% DMSO. Compounds, membrane-bead-suspension and [^125]MCP-1 (ca. 25000 cpm/10 μl) were incubated. Bound radioactivity was determined by scintillation counter after 8 h. Determination of affinity of test compounds (dissociation constant hKi) is calculated by iterative fitting of experimental data using the “easy sys” program, which is based on law of mass action (Schittkowski K. (1994), Numerische Mathematik, Vol. 68, 129-142).

human CCR5 = target: T2, human CCR5 (Homo sapiens, UniProt P51681); assay: CCR5 receptor membrane binding assay (CHO (Gα16) human CCR5 membranes, [125I]RANTES, SPA beads); conditions: 6 h, read-out: hKi [nM] (CCR5)
T2 construct: expressed in transfected cells; host or cells: CHO cells co-expressing Gα16, grown under puromycin and zeocin selection; membrane preparation
T2 sequence (P51681 whole entry): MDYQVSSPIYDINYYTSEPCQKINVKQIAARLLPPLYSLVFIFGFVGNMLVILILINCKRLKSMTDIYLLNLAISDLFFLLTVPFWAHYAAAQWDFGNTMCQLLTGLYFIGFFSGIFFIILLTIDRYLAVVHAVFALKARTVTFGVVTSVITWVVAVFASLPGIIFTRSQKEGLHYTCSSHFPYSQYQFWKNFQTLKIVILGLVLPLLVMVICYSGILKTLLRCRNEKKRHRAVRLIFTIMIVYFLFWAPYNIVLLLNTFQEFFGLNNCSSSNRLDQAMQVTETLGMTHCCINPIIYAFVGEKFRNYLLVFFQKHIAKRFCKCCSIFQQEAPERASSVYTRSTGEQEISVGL
Description: The above exemplary substances have been tested for binding to CCR5 using a binding assay as outlined herein below:
CHO, (Gα16) human CCR5 cells were cultured under standardized conditions at 37° C. and 5% CO2 in a humidified incubator. CHO (Gα16) human CCR5 cells were cultivated in Ham's F12 (Invitrogen; #31765068) supplemented with 10 µg/ml Puromycin (Invitrogen; #A11139-03), 200 µg/ml Zeocin (Invitrogen; #45-0003) and 10% FCS (Gibco; #10500-064).
Membranes were prepared from CHO (Gα16) human CCR5 cells. Cells were cultured on […] plates (Nunc; #166508) 2-3 days before membrane preparation (usually 80-100 plates to obtain 80 mg protein).
Cells were scraped off the plates with a big scraper and washed with 2×5 ml ice cold Phosphate Buffer Saline (PBS; Invitrogen; #14040-174). Cell suspension was collected in a glass bottle (on ice). Cell suspension was harvested at 1400 rpm and 4° C. for 10 min and washed in PBS. Cell pellet was resuspended in 40 ml PBS with protease inhibitor mix ‘complete’ (Roche; #11873580001; 1 tablet/50 ml).
For gentle cell disruption the membrane preparation was performed by using a homogenizer (potter). Cells were homogenized for 5-10 min.
Membranes were centrifuged at 1000 rpm and 4° C. for 5 min. Supernatant (=membrane) was harvested in a new falcon tube and remaining cell pellet homogenized again for 5-10 min with PBS with protease inhibitor mix and centrifuged. Collected supernatant was centrifuged at 40000 rpm and 4° C. for 30 min to sediment the cell membranes.
The membranes were resuspended in 25 mM HEPES, 25 mM MgCl2, 1 mM CaCl2, 10% Glycerine for storage in aliquots at −80° C. Membranes were diluted to a concentration of 5 mg/ml (Bradford Assay).
[^125I]RANTES, Stock: 1825 Ci/mmol, 25 μCi (Bio Trend #A3-AI-676) was solved in 1000 μl assay buffer (100 mM NaCl; 10 mM MgCl2; 50 mM Tris-HCl; 1 mM EDTA; 0.1% BSA, pH 7.6), stored at −20° C.
CHO (Gα16) human CCR5 membrane were solved on ice and adjusted with assay buffer to a concentration of 2.5 μg/15 μl.
Amersham Biosciences PVT-WGA Beads (GE Healthcare; #RPNQ0001) were adjusted with assay buffer to a concentration of 8 mg/ml. For preparation of the membrane-bead-suspension, membranes and beads were incubated for 30 min at RT under rotation with a ratio of 1:2.
Test compounds dissolved in 100% DMSO to a concentration of 10 mM and are further diluted with 100% DMSO to 1 mM. All additional compound dilutions were obtained with assay buffer, final 1% DMSO. 7 μl compound dilution, 45 μl membrane-bead-suspension and 10 μl [^125I]RANTES (ca. 20000 cpm/10 μl) were incubated at RT. Bound radioactivity was determined by scintillation counter after 6 h. Determination of affinity of test compounds (dissociation constant Ki) is calculated by iterative fitting of experimental data using the “easy sys” program, which is based on law of mass action (Schittkowski K. (1994), Numerische Mathematik, Vol. 68, 129-142).

Ki (CCR2): 1 nM | Ki (human CCR5): 160 nM
Compound: Cc1c(Nc2ccc(Cl)c(Cl)c2)nc(C2CC2)nc1C(=O)N1CCC(N2CCO[C@H]3COCC[C@H]32)CC1 (single isomer, unassigned) [Example 35a]

Ki (CCR2): 9 nM | Ki (human CCR5): 1350 nM
Compound: Cc1c(Nc2ccc(Cl)c(Cl)c2)nc(C2CC2)nc1C(=O)N1CCC(N2CCO[C@@H]3COCC[C@@H]32)CC1 (single isomer, unassigned) [Example 35b]

Ki (CCR2): 7 nM | Ki (human CCR5): 1550 nM
Compound: COc1nc(Nc2cccc(C(F)(F)F)c2)c(C)c(C(=O)N2CCC(N3CCO[C@H]4COCC[C@H]43)CC2)n1 (single isomer, unassigned) [Example 36a]

Ki (CCR2): 42 nM | Ki (human CCR5): 2100 nM
Compound: COc1nc(Nc2cccc(C(F)(F)F)c2)c(C)c(C(=O)N2CCC(N3CCO[C@@H]4COCC[C@@H]43)CC2)n1 (single isomer, unassigned) [Example 36b]

Ki (CCR2): 1 nM | Ki (human CCR5): 300 nM
Compound: COc1nc(Nc2ccc(Cl)c(Cl)c2)c(C)c(C(=O)N2CCC(N3CCO[C@H]4COCC[C@H]43)CC2)n1 (single isomer, unassigned) [Example 37a]

Ki (CCR2): 6 nM | Ki (human CCR5): 1000 nM
Compound: COc1nc(Nc2ccc(Cl)c(Cl)c2)c(C)c(C(=O)N2CCC(N3CCO[C@@H]4COCC[C@@H]43)CC2)n1 (single isomer, unassigned) [Example 37b]

Ki (CCR2): 3 nM | Ki (human CCR5): 260 nM
Compound: Cc1nc(Nc2ccc(Cl)c(Cl)c2)c(C)c(C(=O)N2CCC(N3CCO[C@H]4COCC[C@H]43)CC2)n1 (single isomer, unassigned) [Example 38a]

Ki (CCR2): 1 nM | Ki (human CCR5): 460 nM
Compound: Cc1c(Nc2cccc(C(F)(F)F)c2)nc(C2CC2)nc1C(=O)N1CCC(N2CCO[C@H]3COCC[C@H]32)CC1 (single isomer, unassigned) [Example 39a]

Ki (CCR2): 31 nM
Compound: Cc1c(Nc2cccc(C(F)(F)F)c2)nc(C2CC2)nc1C(=O)N1CCC(N2CCO[C@@H]3COCC[C@@H]32)CC1 (single isomer, unassigned) [Example 39b]

Ki (CCR2): 9 nM | Ki (human CCR5): 640 nM
Compound: Cc1nc(Nc2cccc(C(F)(F)F)c2)c(C)c(C(=O)N2CCC(N3CCO[C@H]4COCC[C@H]43)CC2)n1 (single isomer, unassigned) [Example 40b]

The remaining lines, values behind:

Compound: Cc1c(NC[C@H]2CCC[C@@H](c3ccc(OC(F)(F)F)cc3)O2)ncnc1C(=O)N1CCC(N2CCO[C@H]3COCC[C@H]32)CC1 (single isomer, unassigned) [Example 33]
Ki (CCR2): 1 nM | Ki (human CCR5): 48 nM

Compound: Cc1c(NC[C@H]2CCC[C@@H](c3ccc(OC(F)(F)F)cc3)O2)ncnc1C(=O)N1CCC(N2CCO[C@@H]3COCC[C@H]32)CC1 (single isomer, unassigned) [Example 34]
Ki (CCR2): 26 nM | Ki (human CCR5): 1140 nM

Compound: Cc1c(C(=O)N2CCC(N3CCO[C@@H]4COCC[C@@H]43)CC2)ncnc1N1COc2ccc(C(F)(F)F)cc2C1 (single isomer, unassigned) [Example 41]
Ki (CCR2): 2 nM | Ki (human CCR5): 460 nM

Compound: Cc1c(NC[C@H]2CCC[C@@H](c3ccc(C(F)(F)F)cc3)O2)ncnc1C(=O)N1CCC(N2CCO[C@@H]3COCC[C@@H]32)CC1 [Example 1]
Ki (CCR2): 15 nM | Ki (human CCR5): 1770 nM

Compound: Cc1c(NC[C@H]2CCC[C@@H](c3ccc(C(F)(F)F)cc3)O2)ncnc1C(=O)N1CCC(N2CCO[C@H]3COCC[C@H]32)CC1 [Example 2]
Ki (CCR2): 0.5 nM | Ki (human CCR5): 460 nM

Compound: Cc1c(C(=O)N2CCC(N3CCO[C@H]4COCC[C@H]43)CC2)ncnc1N1CCc2ccc(C(F)(F)F)cc2C1 [Example 3]
Ki (CCR2): 4 nM | Ki (human CCR5): 2090 nM

Compound: Cc1c(Nc2ccc(Cl)c(Cl)c2)ncnc1C(=O)N1CCC(N2CCO[C@H]3COCC[C@H]32)CC1 [Example 4]
Ki (CCR2): 4 nM | Ki (human CCR5): 540 nM

Compound: Cc1c(Nc2cccc(C(F)(F)F)c2)ncnc1C(=O)N1CCC(N2CCO[C@H]3COCC[C@H]32)CC1 [Example 5]
Ki (CCR2): 9 nM | Ki (human CCR5): 1460 nM

Compound: Cc1ccc([C@@H]2CCC[C@H](CNc3ncnc(C(=O)N4CCC(N5C[C@H]6C[C@@H](N(C)S(C)(=O)=O)C[C@H]6C5)CC4)c3C)O2)cc1 [Example 6]
Ki (CCR2): 0.3 nM | Ki (human CCR5): 38 nM

Compound: Cc1c(C(=O)N2CCC(N3C[C@H]4C[C@@H](N(C)S(C)(=O)=O)C[C@H]4C3)CC2)ncnc1N1CCc2ccc(C(F)(F)F)cc2C1 [Example 7]
Ki (CCR2): 0.6 nM | Ki (human CCR5): 420 nM

Compound: Cc1c(NC[C@H]2CCC[C@@H](c3ccc(OC(F)(F)F)cc3)O2)ncnc1C(=O)N1CCC(N2C[C@H]3C[C@@H](N(C)S(C)(=O)=O)C[C@H]3C2)CC1 [Example 8]
Ki (CCR2): 0.1 nM | Ki (human CCR5): 9 nM

Compound: Cc1c(NC[C@H]2CCC[C@@H](c3ccc(C(F)(F)F)cc3)O2)ncnc1C(=O)N1CCC(N2C[C@H]3C[C@@H](N(C)S(C)(=O)=O)C[C@H]3C2)CC1 [Example 9]
Ki (CCR2): 0.2 nM | Ki (human CCR5): 21 nM

Compound: Cc1c(Nc2ccc(Cl)c(Cl)c2)ncnc1C(=O)N1CCC(N2C[C@H]3C[C@@H](N(C)S(C)(=O)=O)C[C@H]3C2)CC1 [Example 10]
Ki (CCR2): 0.6 nM | Ki (human CCR5): 92 nM

Compound: Cc1c(NC[C@H]2CCC[C@@H](c3ccccc3)C2)ncnc1C(=O)N1CCC(N2C[C@H]3C[C@@H](N(C)S(C)(=O)=O)C[C@H]3C2)CC1 [Example 11]
Ki (CCR2): 0.8 nM | Ki (human CCR5): 15 nM

— patent publication US20130150354A1, “NEW SELECTIVE CCR2 ANTAGONISTS” (BOEHRINGER INGELHEIM INTERNATIONAL GMBH, priority 2011, published 2013)
